Series [1] concerns P388 murine leukemia. The experiment in a line: Antitumor activity against P388 murine leukemia in mice (survival time, T/C %). The series is classed as in vivo. As for the experimental part: Animals: mice were provided by Charles River Breeding Laboratories (Calco, Como, Italy); they were male mice of 6-8 weeks under standard housing conditions. Formulations: BBR 2778 dissolved and diluted in sterile water just before administration of 10 mg/kg to mice was used as reference. The liposome formulation of Example 4 was used. Tumor model: P388 murine leukemia, provided by NCI Frederick Cancer Facility (USA) is maintained through a series of intraperitoneal transplants in DBA2 mice. Mice were transplanted with 10^6 cells/mouse of P388 leukemia, the liposome compound and the reference standard were administered i.v. at days 1, 4, 7 after tumor transplant. The antitumor activity was determined as percent increase in the survival time of mice, expressed by the T/C % ratio of the mean survival time (TMS) of the treated group (T) to the mean survival time of the control group (C): […]

Series [2] deals with CD1 mice. The format is in vivo. As to conditions: 40 or 60 mg/kg i.v. bolus.
Series [3] has as its system mice. The conditions noted are these: male, mouse, in vivo, iv, 40 mg/kg.
Description: The liposome formulations according to the invention were tested in vivo for the antitumor activity and toxicity. […] In particular, the inhibitory activity on sudden deaths was evaluated compared with the control group, which was administered with a formulation of the free drug.

Marks after values point to notes of the source that are not given here.

On to `NCCNc1ccc(NCCN)c2c1C(=O)c1ccncc1C2=O.O=C(O)/C=C\C(=O)O` [BBR 2778 solution, 6,9-bis-[(2-aminoethyl)amino]benzo[g]isoquinoline-5,10-dione dimaleate], for which the T/C % is 199** % in series [1] (18 mg/kg/day i.v. at days 1, 4, 7 after tumor transplant); 226** % in series [1] (27 mg/kg/day i.v. at days 1, 4, 7 after tumor transplant); 159** % in series [1] (40 mg/kg/day i.v. at days 1, 4, 7 after tumor transplant, dimaleate); 159% in series [1] (40 mg/kg/day i.v. at days 1, 4, 7 after tumor transplant, listed as BBR 2778 in solution, dimaleate); 36** % in series [1] (60 mg/kg/day i.v. at days 1, 4, 7 after tumor transplant). Moreover, in series [2], the “death during or immediately after treatment” value is on record as “death of some animals is observed”. Further, the “toxicity (percent toxic deaths)” value in series [3] is 60.4%.
